{
  "source": "patent US20220023358A1",
  "about": "“COMBINATION THERAPIES OF MICROORGANISMS AND IMMUNE MODULATORS FOR USE IN TREATING CANCER” (Synlogic Operating Company, Inc., priority 2018, published 2022)",
  "molecules": {"B1": {"name": "PEGPH20: PEGylated form of rHuPH20, a hyaluronidase (protein, UniProt P38567 36-490, looked up)", "Hyaluronidase PH-20": "LNFRAPPVIPNVPFLWAWNAPSEFCLGKFDEPLDMSLFSFIGSPRINATGQGVTIFYVDRLGYYPYIDSITGVTVNGGIPQKISLQDHLDKAKKDITFYMPVDNLGMAVIDWEEWRPTWARNWKPKDVYKNRSIELVQQQNVQLSLTEATEKAKQEFEKAGKDFLVETIKLGKLLRPNHLWGYYLFPDCYNHHYKKPGYNGSCFNVEIKRNDDLSWLWNESTALYPSIYLNTQQSPVAATLYVRNRVREAIRVSKIPDAKSPLPVFAYTRIVFTDQVLKFLSQDELVYTFGETVALGASGIVIWGTLSIMRSMKSCLLLDNYMETILNPYIINVTLAAKMCSQVLCQEQGVCIRKNWNSSDYLHLNPDNFAIQLEKGGKFTVRGKPTLEDLEQFSEKFYCSCYSTLSCKEKADVKDTDAVDVCIADGVCIDAFLKPPMETEEPQIFYNASPSTLS", "modifications": "PEG", "notes": "PEGylated form of rHuPH20, a hyaluronidase"}},
  "key": {"[1]": {"system": "WT, TLR4−/− and STING−/− BMDCs", "experiment": "Cytokine mRNA in WT, TLR4−/− and STING−/− BMDCs", "type": "cell-based, murine", "conditions": "4 hours", "protocol": "(§1) In indicated groups cells were pre-treated with for lh with Cytochalasin D (10 μM). Macrophages or BMDCs incubated in media alone served as a negative control. Cells were analyzed for the upregulation of Ifnbl and 116 mRNA (FIGS. 7D-7G). WT, TLR4^−/− and STING-^−/− BMDCs were treated with Control EcN (MOI: 25), pre-induced SYN1891 (MOI: 25), LPS (100 ng/mL), or smSTING agonist (5 μg/mL) for 4 hours. Cells were analyzed for the upregulation of Ifnb1, Il6 and Il12a mRNA (FIGS. 7H-7J). Data are representative of two or more independent experiments with mean and standard deviation shown. **P<0.005; ***P<0.0005; ****P<0.00001; two-tailed unpaired Student's t-test comparing the indicated groups.\nLPS is an integral component of the outer membrane of Gram-negative bacteria and as such LPS recognition by TLR4 plays an important role in the induction of immune responses by these microbes."}, "[2]": {"system": "RAW 264.7 macrophages or WT BMDCs", "experiment": "Cytokine mRNA in RAW 264.7 macrophages or WT BMDCs, with or without Cytochalasin D", "type": "cell-based, murine", "protocol": "as §1\nTo evaluate the mechanism of action of SYNB1891 in the induction of type I IFNs, bacterial phagocytosis was blocked using cytochalasin D. Cytochalasin D inhibits actin polymerization and prevents phagocytosis, yet it has minimal effect on endocytosis/pinocytosis of soluble small molecules. […] Therefore, phagocytosis of SYNB1891 is required for intracellular CDA release and STING activation in target cells, providing a natural mechanism for preferential activation of APCs in the tumor."}, "NK cells": {"system": "NK cells", "conditions": "first-in-human clinical trial; cited from earlier work"}, "[3]": {"system": "Hyaluronan or Hyaluronic acid (HA)", "conditions": "mouse PDA tumors; cited from earlier work"}},
  "data": [
    {"molecule": "Nc1ncnc2c1ncn2[C@@H]1O[C@@H]2COP(O)(=S)O[C@@H]3C(O)[C@@H](COP(O)(=S)O[C@H]2[C@H]1O)O[C@H]3n1cnc2c(N)ncnc21", "note": "(stereo partly drawn) [smSTING agonist, 2′3′-c-di-AM(PS)2 (Rp,Rp)]", "values": [
      {"measurement": "IFNβ1 expression in STING−/− BMDCs", "setting": "[1]; STING−/− BMDCs", "result": "completely abrogated"},
      {"measurement": "IFNβ1 expression in TLR4−/− BMDCs", "setting": "[1]; TLR4−/− BMDCs", "result": "preserved"},
      {"measurement": "Cytokines expressed", "setting": "[2]; 4 hours, 5 μg/mL", "result": "led only to IFNβ1 expression"},
      {"measurement": "IFNβ1 induction, effect of Cytochalasin D", "setting": "[2]; Cytochalasin D pre-treatment", "result": "did not affect"}
    ]},
    {"molecule": "recombinant human IL-15: recombinant human IL-15 cytokine", "values": [
      {"measurement": "Expansion of NK cells", "setting": "NK cells", "result": 10, "unit": "fold"}
    ]},
    {"molecule": "B1", "values": [
      {"measurement": "Interstitial fluid pressure after treatment", "setting": "[3]", "result": "20-30 mmHg"}
    ]}
  ]
}
